A word on the Ki: it is the equilibrium dissociation constant of an inhibitor or competing ligand from its target. Lower therefore signals a stronger hold on the target.

In the experiment the target is CBL-B protein (Homo sapiens, UniProt Q13191). Kind of experiment: CBL-B binding experiment (Streptavidin-Tb cryptate / Ligand L1 displacement). Particulars: 8 nM CBL-B protein, 25° C., 60 minutes; Ki=Relative IC50/2. The procedure: The reaction system mainly includes 1× buffer, 20 mM HEPES pH 7.5, 150 mM NaCl, 0.01% Triton X-100, 0.5 mM TCEP, and 0.1% ug/ml BSA. The compound is continuously diluted with DMSO for 10 concentration points, and 150 nL is transferred to the experimental plate. The experimental reaction begins after adding 8 nM of CBL-B protein and the reaction is carried out at 25° C. for 60 minutes. […] After an additional 60 minutes of incubation at room temperature, the experimental plate is read using an EnVision plate. The luminescence signal values were converted to percentage inhibition rates. Inhibition %=(Sample value−Maximum value)/(Minimum value−Maximum value)×100. The minimum value refers to the measured value in the wells without CBL-B protein but with DMSO and Ligand, while the maximum value refers to the measured value in the wells with DMSO, CBL-B protein, and Ligand. The IC50 values are calculated by XLFit (version 5.3.1.3) in Excel. Equation: Y=Bottom+(Top−Bottom)/(1+(IC50/X)^HillSlope); Ki=Relative IC50/2.
Sequence of CBL-B protein (Q13191 whole entry): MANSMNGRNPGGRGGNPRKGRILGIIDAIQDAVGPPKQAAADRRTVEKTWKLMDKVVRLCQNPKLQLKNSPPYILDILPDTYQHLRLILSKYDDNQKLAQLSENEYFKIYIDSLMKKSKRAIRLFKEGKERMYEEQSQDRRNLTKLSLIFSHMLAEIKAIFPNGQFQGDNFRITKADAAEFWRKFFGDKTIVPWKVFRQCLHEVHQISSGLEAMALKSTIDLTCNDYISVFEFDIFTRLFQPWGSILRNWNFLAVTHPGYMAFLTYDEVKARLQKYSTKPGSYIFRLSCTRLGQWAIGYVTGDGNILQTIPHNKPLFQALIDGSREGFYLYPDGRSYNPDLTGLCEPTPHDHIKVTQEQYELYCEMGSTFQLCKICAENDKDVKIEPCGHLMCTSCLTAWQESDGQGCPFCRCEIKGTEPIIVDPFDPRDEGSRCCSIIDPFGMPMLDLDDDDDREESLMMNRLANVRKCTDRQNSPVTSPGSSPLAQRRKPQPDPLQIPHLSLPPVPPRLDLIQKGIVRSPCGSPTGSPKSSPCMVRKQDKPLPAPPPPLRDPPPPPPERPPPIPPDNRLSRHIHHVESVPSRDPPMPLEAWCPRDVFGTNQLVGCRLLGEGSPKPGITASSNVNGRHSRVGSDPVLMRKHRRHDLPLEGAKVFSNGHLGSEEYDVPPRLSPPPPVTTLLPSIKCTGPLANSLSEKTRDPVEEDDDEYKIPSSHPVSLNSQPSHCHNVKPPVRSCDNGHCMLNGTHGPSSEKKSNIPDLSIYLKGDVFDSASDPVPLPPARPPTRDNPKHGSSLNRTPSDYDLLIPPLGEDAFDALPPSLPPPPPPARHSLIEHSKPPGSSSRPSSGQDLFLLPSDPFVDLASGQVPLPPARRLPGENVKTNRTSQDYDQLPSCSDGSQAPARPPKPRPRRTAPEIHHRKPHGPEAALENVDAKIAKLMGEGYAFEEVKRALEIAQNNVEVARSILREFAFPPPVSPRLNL
As to `Cn1cnnc1C1(c2cccc(-n3cc(C(F)(F)F)c4cc(CN5CCC[C@](C)(O)C5)[nH]c4c3=O)c2)CCC1` [Compound T064, (S)-2-((3-hydroxy-3-methylpiperidin-1-yl)methyl)-6-(3-(1-(4-methyl-4H-1,2,4-triazol-3-yl)cyclobutyl)phenyl)-4-(trifluoromethyl)-1,6-dihydro-7H-pyrrolo[2,3-c]pyridin-7-one], the inhibitory constant (Ki) was below 50 nM. In the case of `Cn1cnnc1C1(c2cccc(-n3cc(C(F)(F)F)c4cc(CN5CCC[C@@](C)(O)C5)[nH]c4c3=O)c2)CCC1` [Compound T065, 2-[[(3R)-3-hydroxy-3-methyl-1-piperidyl]methyl]-6-[3-[1-(4-methyl-1,2,4-triazol-3-yl)cyclobutyl]phenyl]-4-(trifluoromethyl)-1H-pyrrolo[2,3-c]pyridin-7-one], the Ki was below 50 nM.

For `Cn1cnnc1C1(c2cccc(-n3cc(C(F)(F)F)c4cc(CN5CC[C@@H](O)[C@@H](F)C5)[nH]c4c3=O)c2)CCC1` [Compound T072, 2-(((3 S,4R)-3-fluoro-4-hydroxypiperidin-1-yl)methyl)-6-(3-(1-(4-methyl-4H-1,2,4-triazol-3-yl)cyclobutyl)phenyl)-4-(trifluoromethyl)-1,6-dihydro-7H-pyrrolo[2,3-c]pyridin-7-one], the Ki is below 50 nM. To `C[C@H]1CCCN(Cc2cc3c(C(F)(F)F)cn(-c4ccc([C@]5(c6nncn6C)C[C@@H](C)C5)s4)c(=O)c3[nH]2)C1` [Compound T073, 6-(5-((1r,3S)-3-methyl-1-(4-methyl-4H-1,2,4-triazol-3-yl)cyclobutyl)thiophen-2-yl)-2-(((S)-3-methylpiperidin-1-yl)methyl)-4-(trifluoromethyl)-1,6-dihydro-7H-pyrrolo[2,3-c]pyridin-7-one] belongs below 50 nM; to `C[C@H]1CCCN(Cc2cc3c(C(F)(F)F)cn(-c4ccc([C@]5(c6nncn6C)C[C@H](C)C5)s4)c(=O)c3[nH]2)C1` [Compound T074, 6-(5-((1s,3R)-3-methyl-1-(4-methyl-4H-1,2,4-triazol-3-yl)cyclobutyl)thiophen-2-yl)-2-(((S)-3-methylpiperidin-1-yl)methyl)-4-(trifluoromethyl)-1,6-dihydro-7H-pyrrolo[2,3-c]pyridin-7-one], below 50 nM.

`Cn1cnnc1C1(c2cccc(-n3cc(C(F)(F)F)c4cc(CN5CCC(F)(F)CC5)[nH]c4c3=O)c2)CCC1` [Compound T075, 2-[(4,4-difluoro-1-piperidyl)methyl]-6-[3-[1-(4-methyl-1,2,4-triazol-3-yl)cyclobutyl]phenyl]-4-(trifluoromethyl)-1H-pyrrolo[2,3-c]pyridin-7-one] registered a Ki below 50 nM. Then `C[C@H]1CCCN(Cc2cc3c(C(F)(F)F)cn(-c4cccc(-c5ccccc5-c5nncn5C)c4)c(=O)c3[nH]2)C1` [Compound T076, 2-[[(3S)-3-methyl-1-piperidyl]methyl]-6-[3-[2-(4-methyl-1,2,4-triazol-3-yl)phenyl]phenyl]-4-(trifluoromethyl)-1H-pyrrolo[2,3-c]pyridin-7-one], with below 50 nM; and `C[C@@H]1CN(Cc2cc3c(C4CC4)cn(-c4cccc(C5(Cc6nncn6C)COC5)c4)c(=O)c3[nH]2)CCC1(F)F` [Compound T078, (R)-4-cyclopropyl-2-((4,4-difluoro-3-methylpiperidin-1-yl)methyl)-6-(3-(3-((4-methyl-4H-1,2,4-triazol-3-yl)methyl)oxetan-3-yl)phenyl)-1,6-dihydro-7H-pyrrolo[2,3-c]pyridin-7-one], with below 50 nM. Then `C[C@H]1CN(Cc2cc3c(C4CC4)cn(-c4cccc(C5(Cc6nncn6C)COC5)c4)c(=O)c3[nH]2)CCC1(F)F` [Compound T079, (S)-4-cyclopropyl-2-((4,4-difluoro-3-methylpiperidin-1-yl)methyl)-6-(3-(3-((4-methyl-4H-1,2,4-triazol-3-yl)methyl)oxetan-3-yl)phenyl)-1,6-dihydro-7H-pyrrolo[2,3-c]pyridin-7-one], with below 50 nM; and `Cn1cnnc1C1(c2cccc(-n3cc(C(F)(F)F)c4cc(CN5CCC[C@H](CC#N)C5)[nH]c4c3=O)c2)CCC1` [Compound T081, (R)-2-(1-((6-(3-(1-(4-methyl-4H-1,2,4-triazol-3-yl)cyclobutyl)phenyl)-7-oxo-4-(trifluoromethyl)-6,7-dihydro-1H-pyrrolo[2,3-c]pyridin-2-yl)methyl)piperidin-3-yl)acetonitrile], with below 50 nM; and `C[C@H]1CCCN(Cc2cc3c(S(C)(=O)=O)cn(-c4cccc(C5(Cc6nncn6C)COC5)c4)c(=O)c3[nH]2)C1` [Compound T089, 2-[[(3S)-3-methyl-1-piperidyl]methyl]-4-methylsulfonyl-6-[3-[3-[(4-methyl-1,2,4-triazol-3-yl)methyl]oxetan-3-yl]phenyl]-1H-pyrrolo[2,3-c]pyridin-7-one], with below 50 nM. Then `C[C@H]1CCCN(Cc2cc3c(Br)cn(-c4cccc(C5(Cc6nncn6C)COC5)c4)c(=O)c3[nH]2)C1` [Compound T090, (S)-4-bromo-6-(3-(3-((4-methyl-4H-1,2,4-triazol-3-yl)methyl)oxetan-3-yl)phenyl)-2-((3-methylpiperidin-1-yl)methyl)-1,6-dihydro-7H-pyrrolo[2,3-c]pyridin-7-one], with below 50 nM. On to `CC(C)C1CN(C)CCN1Cc1cc2c(C3CC3)cn(-c3cccc([C@]4(c5nncn5C)C[C@@H](C)C4)c3)c(=O)c2[nH]1` (stereo partly drawn) [Compound T094, 4-cyclopropyl-2-((2-isopropyl-4-methylpiperazin-1-yl)methyl)-6-(3-((1s,3s)-3-methyl-1-(4-methyl-4H-1,2,4-triazol-3-yl)cyclobutyl)phenyl)-1,6-dihydro-7H-pyrrolo[2,3-c]pyridin-7-one], for which the inhibition constant (Ki) was below 50 nM.

Compound `CC(C)[C@@H]1CN(C)CCN1Cc1cc2c(C3CC3)cn(-c3cccc([C@]4(c5nncn5C)C[C@@H](C)C4)c3)c(=O)c2[nH]1` [Compound T095, 4-cyclopropyl-2-(((R)-2-isopropyl-4-methylpiperazin-1-yl)methyl)-6-(3-((1s,3S)-3-methyl-1-(4-methyl-4H-1,2,4-triazol-3-yl)cyclobutyl)phenyl)-1,6-dihydro-7H-pyrrolo[2,3-c]pyridin-7-one] came in with a Ki below 50 nM.

`CC(C)CN(Cc1cc2c(C(F)(F)F)cn(-c3cccc(C4(c5nncn5C)CCC4)c3)c(=O)c2[nH]1)CC(C)C` [Compound T098, 2-[(diisobutylamino)methyl]-6-[3-[1-(4-methyl-1,2,4-triazol-3-yl)cyclobutyl]phenyl]-4-(trifluoromethyl)-1H-pyrrolo[2,3-c]pyridin-7-one] gave a Ki below 50 nM. To `COCC1(NCc2cc3c(C(F)(F)F)cn(-c4cccc([C@]5(c6nncn6C)C[C@H](OC)C5)c4)c(=O)c3[nH]2)CC1` [Compound T099, 6-(3-((1r,3r)-3-methoxy-1-(4-methyl-4H-1,2,4-triazol-3-yl)cyclobutyl)phenyl)-2-(((1-(methoxymethyl)cyclopropyl)amino)methyl)-4-(trifluoromethyl)-1,6-dihydro-7H-pyrrolo[2,3-c]pyridin-7-one] belongs below 50 nM; to `COCC1(NCc2cc3c(C(F)(F)F)cn(-c4cccc([C@]5(c6nncn6C)C[C@@H](OC)C5)c4)c(=O)c3[nH]2)CC1` [Compound T100, 6-(3-((1s,3s)-3-methoxy-1-(4-methyl-4H-1,2,4-triazol-3-yl)cyclobutyl)phenyl)-2-(((1-(methoxymethyl)cyclopropyl)amino)methyl)-4-(trifluoromethyl)-1,6-dihydro-7H-pyrrolo[2,3-c]pyridin-7-one], below 50 nM. To `C[C@H]1CCCN(Cc2cc3c(C(F)(F)F)cn(-c4cc(F)cc([C@]5(c6nncn6C)C[C@@H](C)C5)c4)c(=O)c3[nH]2)C1` [Compound T101, 6-(3-fluoro-5-((1s,3R)-3-methyl-1-(4-methyl-4H-1,2,4-triazol-3-yl)cyclobutyl)phenyl)-2-(((S)-3-methylpiperidin-1-yl)methyl)-4-(trifluoromethyl)-1,6-dihydro-7H-pyrrolo[2,3-c]pyridin-7-one] belongs below 50 nM; to `Cn1cnnc1C1(c2cccc(-n3cc(C(F)(F)F)c4cc(CN5CC6CC5CC6(F)F)[nH]c4c3=O)c2)CCC1` (stereo not drawn) [Compound T105, 2-[(5,5-difluoro-2-azabicyclo[2.2.1]heptan-2-yl)methyl]-6-[3-[1-(4-methyl-1,2,4-triazol-3-yl)cyclobutyl]phenyl]-4-(trifluoromethyl)-1H-pyrrolo[2,3-c]pyridin-7-one], below 50 nM. To `Cn1cnnc1C1(c2cccc(-n3cc(C(F)(F)F)c4cc(CN5CC(F)CC(CO)C5)[nH]c4c3=O)c2)CCC1` (stereo not drawn) [Compound T106, 2-[[3-fluoro-5-(hydroxymethyl)-1-piperidyl]methyl]-6-[3-[1-(4-methyl-1,2,4-triazol-3-yl)cyclobutyl]phenyl]-4-(trifluoromethyl)-1H-pyrrolo[2,3-c]pyridin-7-one] belongs below 50 nM. Compound `CO[C@@H]1CCN(Cc2cc3c(C(F)(F)F)cn(-c4cccc(C5(c6nncn6C)CCC5)c4)c(=O)c3[nH]2)C[C@@H]1F` [Compound T107, 2-(((3S,4R)-3-fluoro-4-methoxypiperidin-1-yl)methyl)-6-(3-(1-(4-methyl-4H-1,2,4-triazol-3-yl)cyclobutyl)phenyl)-4-(trifluoromethyl)-1,6-dihydro-7H-pyrrolo[2,3-c]pyridin-7-one] yielded an inhibition constant Ki below 50 nM.

Values taken from patent US20260217706A1, “HETEROCYCLIC COMPOUNDS, PREPARATION METHOD THEREFOR AND USE THEREOF” (GUANGZHOU YUFAN NANTU BIOTECHNOLOGIES CO., LTD, priority 2023, published 2026).
